Assay [1] deals with T1, ACAT2 (Homo sapiens, UniProt O75908).
T1 sequence (O75908 1-522): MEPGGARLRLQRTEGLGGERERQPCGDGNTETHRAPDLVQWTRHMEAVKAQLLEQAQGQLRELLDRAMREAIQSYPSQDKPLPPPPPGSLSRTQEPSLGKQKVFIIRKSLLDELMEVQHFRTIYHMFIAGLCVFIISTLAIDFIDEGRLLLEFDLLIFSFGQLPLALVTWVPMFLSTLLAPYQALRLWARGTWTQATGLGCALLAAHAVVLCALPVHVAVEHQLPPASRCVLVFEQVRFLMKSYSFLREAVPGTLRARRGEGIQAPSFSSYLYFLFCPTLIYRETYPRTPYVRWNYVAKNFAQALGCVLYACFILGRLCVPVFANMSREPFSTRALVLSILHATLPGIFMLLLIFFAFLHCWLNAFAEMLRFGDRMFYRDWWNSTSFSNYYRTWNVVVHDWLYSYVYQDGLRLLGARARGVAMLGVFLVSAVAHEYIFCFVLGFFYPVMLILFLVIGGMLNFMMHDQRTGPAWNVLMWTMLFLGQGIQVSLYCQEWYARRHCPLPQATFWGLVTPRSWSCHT
Further details: IC50 ACAT2. Conditions: cited from earlier work.

For assay [2], the system named is mouse model for Alzheimer's Disease. Conditions: in vivo; cited from earlier work.
Assay [3] has as its target T2, human ACAT1 (Homo sapiens, UniProt P35610).
T2 sequence (P35610 1-550): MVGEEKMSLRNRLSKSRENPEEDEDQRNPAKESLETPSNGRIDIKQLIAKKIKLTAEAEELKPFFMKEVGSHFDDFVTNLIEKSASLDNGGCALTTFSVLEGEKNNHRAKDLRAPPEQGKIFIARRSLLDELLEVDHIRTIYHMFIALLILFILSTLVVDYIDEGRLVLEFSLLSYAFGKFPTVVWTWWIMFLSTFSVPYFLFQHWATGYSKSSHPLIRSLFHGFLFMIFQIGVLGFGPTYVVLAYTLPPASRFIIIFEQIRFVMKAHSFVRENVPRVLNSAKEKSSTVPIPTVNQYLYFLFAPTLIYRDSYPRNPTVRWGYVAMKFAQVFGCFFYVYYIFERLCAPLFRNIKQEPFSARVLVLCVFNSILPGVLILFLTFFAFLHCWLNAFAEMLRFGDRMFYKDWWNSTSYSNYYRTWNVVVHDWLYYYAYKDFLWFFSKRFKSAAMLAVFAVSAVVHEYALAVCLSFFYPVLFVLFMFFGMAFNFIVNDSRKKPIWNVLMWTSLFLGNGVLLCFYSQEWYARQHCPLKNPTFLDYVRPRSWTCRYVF
Nature of the assay: mixed liposome ACAT1 assay.
Description: In vitro Mixed Liposomal ACAT Activity Assay. […] Lysed cells were collected and aliquoted into pre-chilled tubes containing the liposomal mixture of taurocholate, phosphatidylcholine, and cholesterol. Tubes were vortexed and kept on ice for 5 minutes. Samples were then incubated in a 37° C. shaking water bath with ^3H-oleoyl CoA added for 10 minutes. The assay was stopped by adding CHCl3:MeOH (2:1). Lipids were extracted and analyzed by the same TLC method described herein.

Another assay concerns ABCA1. In words: ABCA1 protein content in human myelin debris-treated HMC3 cells. Type of assay: cell-based. The settings on record: human myelin debris at 25 μg/mL cholesterol, 0.5 μM inhibitor, 24 hours. The protocol:
Afterward, cells were harvested for western blot analyses. Lysates of HEK293 cells and lysates of HMC3 cells treated with 10 μM LXR agonist T0901317 for 24 hours were respectively used as negative and positive controls for ABCA1 signals. […] Data are expressed as mean±SEM.
(§1) Subsequently, myelin debris from human brains was prepared and it was observed that the cholesterol/protein ratio, as well as the protein composition between mouse myelin debris and human myelin debris, were very similar.

Assay [4] relates to IL-4Rα. Nature of the assay: IL-4Rα expression in HMC3 microglia (western blot). The settings on record: for IL-4Rα protein content: human myelin debris-treated HMC3 cells, 48 hours co-incubation. Type of assay: cell-based, human. How it is done: (§2) IL-4Rα expression was determined by convention methods. 25 μg/mL cholesterol equals 38 μg/mL total myelin debris protein. Data are expressed as mean±SEM. *P<0.05; **P<0.01.
[…] Protein was isolated and analyzed by western blot analysis. Vinculin was the loading control. […] Data are expressed as mean±SEM. *P<0.05; **P<0.01.
as §1
In general terms: Immunoblotting shows a protein as a band on a membrane.

Assay [5] relates to IL-4Rα. In words: IL-4Rα expression in N9 microglia (immunoblot). It is filed as cell-based, mouse. How it is done:
Cells were harvested for immunoblot analysis for IL-4Rα. Vinculin was the loading control. Data expressed as mean+/−SEM, * p<0.05, ** p<0.01.
as §2
In microglia, various cholesterol-rich agents including myelin debris and damaged cell membranes enter the cells. […] In addition, the effects of ACAT1 blockade were tested in N9 and the human microglia-like cell line HMC3, which both express normal TREM-2 receptors.

The next assay relates to N9 microglial cells. Nature of the assay: inflammatory responses to LPS in N9 microglial cells (qPCR, IκB-α western blot). Type of assay: cell-based, mouse. Conditions: 0.5 μM for 4 hours, then 10, 100 or 1000 ng/mL LPS. How it is done:
Cells were seeded at 1×10^5/well onto 12-well plates in RPMI-1640 with 10% bovine calf serum. […] Six hours later, mRNA was extracted, and qPCR was performed to monitor pro-inflammatory (FIG. 5A) or anti-inflammatory (FIG. 5B) gene expression. […] Thirty minutes later, proteins were extracted for western blot analysis for total IκB-α, and for phosphorylated IκB-α (p-IκB-α). *P<0.05; ** P<0.01.
It has now been shown that, in microglia, genetic inactivation of Acat1 suppresses certain pro-inflammatory response genes (FIG. 4A and FIG. 4C, e.g., IL-1β, iNOS, MCP1, Cxc19, Cxc110 and IL-6) and induces certain anti-inflammatory response genes (FIG. 4B and FIG. 4D, e.g., YM1) in the hippocampus (FIG. 4A and FIG. 4B) and cortex (FIG. 4C and FIG. 4D).
For orientation: In qPCR the cycle at which signal appears reflects the starting amount.

The target of assay [6] is T2, human ACAT1. The settings on record: cited from earlier work.
The test system of the next assay is ACAT1. In words: ACAT1 inhibition, literature values. The settings on record: ratio of IC50 values ACAT2/ACAT1. It is filed as biochemical, human. The text has this: Cholesterol is stored as cholesteryl esters. For cholesterol esterification, there are two Acyl-CoA:Cholesterol Acyltransferase (ACAT) genes, SOAT1 and SOAT2, encoding two homologous but distinct enzymes, ACAT1 and ACAT2. Both enzymes use long-chain fatty acyl-CoAs and sterols with 3-beta-OH, including cholesterol and various oxysterols as their substrates. ACAT1 is the major cholesterol storage enzyme in the brain.
Biophys. Res. Comm. […] Here, the ACAT activity was monitored using the ACAT enzyme assay in vitro.

For assay [7], the target named is T1, ACAT2. The settings on record: at 1 mM; cited from earlier work.

What is called IC50 is the point on the concentration scale where inhibition reaches its midpoint. As to `CCCC[C@H](C)[C@@H]1CC(=O)N[C@@H](Cc2ccccc2)C(=O)N[C@@H](C)C(=O)N[C@H](CC(C)C)C(=O)O1` [Beauveriolide I], the IC50 at ACAT2 [1] is 20 µM.

Consider `CC(C)c1cc(C(C)C)c(CC(=O)NS(=O)(=O)Oc2c(C(C)C)cccc2C(C)C)c(C(C)C)c1` [CI 1011], for which the “amyloidopathy / cognitive deficits in mouse model for AD” value in [2] is “reduce amyloidopathy”.

With `CCCCCCCC[C@H](SCCCCCC)C(=O)Nc1c(SC)cc(C)nc1SC` [CP113,818], the “amyloidopathy / cognitive deficits in mouse model for AD” value in [2] was “reduce amyloidopathy and rescue cognitive deficits”.

For `CC(C)c1cccc(C(C)C)c1NC(=O)CC(=O)C(Cc1ccccc1)Cc1ccc(O)cc1` (centres unmarked) [Compound 1B], the IC50 at ACAT2 [1] is 1.5 µM.

Consider `CC(C)c1cccc(C(C)C)c1NC(=O)CC(=O)C(Cc1ccccc1)Cc1ccc(OC(=O)CCCCCCN2CCCCCC2=O)cc1` (centres unmarked) [Compound 1C], for which the IC50 at ACAT2 [1] was 0.53 µM.

As a reminder, the EC50 is the concentration needed to bring the measured effect to its halfway point. Compound `CCCCCCCCCCCCS(=O)(=O)[C@](F)(C(=O)Nc1cc(C)c(O)c(C)c1C)c1ccccc1` [F26] returned an EC50 at human ACAT1 [3] of 0.0058 µM. For the same compound, on human ACAT1 [3] (ratio of EC50 values), the “potency relative to F12511 as ACAT1 inhibitor” value is listed as about 7 times.

For `CCCCCCCCCCCCS[C@H](C(=O)Nc1cc(C)c(O)c(C)c1C)c1ccccc1` [F12511], in the assay on ABCA1, the ABCA1 protein content result is listed as “increased significantly”. For the same compound, at ACAT2 [1], the IC50 was 0.11 µM. Moreover, the IL-4Rα protein content entry in the assay on IL-4Rα [4] is reported as “IL-4Rα protein content increases”.

Regarding `CSc1cc(C)nc(SC)c1NC(=O)CN1CCN(CCSc2nc3ccccc3[nH]2)CC1` [K-604], the ABCA1 protein content result in the assay on ABCA1 is given as “increased significantly”. Also, the IL-4Rα expression result with IL-4Rα [5] (N9 cells, 0.5 μM for 4 or 12 hours) is on record as “increases expression of the receptor IL-4Rα”; with IL-4Rα [5] (mouse myelin debris-treated N9 cells, 21 hours), “upregulates IL-4Rα expression”; in the assay on IL-4Rα [4] (mouse myelin debris-treated HMC3 cells, 21 hours) it was “upregulates IL-4Rα expression”. Also, the “inflammatory responses to LPS” value in the assay with N9 microglial cells is “attenuates inflammatory responses to LPS”. Further, the IL-4Rα protein content result in the assay on IL-4Rα [4] is reported as “IL-4Rα protein content increases”.

As for `CCCCCCCC(=O)Nc1ccccc1-c1ccccc1` [compound 1], the IC50 at ACAT2 [1] was 230 µM.

Turning to `CCCCCCCCC(=O)Nc1ccccc1-c1ccccc1` [compound 2], the IC50 on ACAT2 [1] is 414 µM.

In the case of `CCCCCCCC(=O)Nc1cc(-c2ccccc2)nn1-c1ccccc1` [compound 13], the IC50 at ACAT2 [1] is 53 µM.

Regarding `CCCCCCCCC(=O)Nc1cc(-c2ccccc2)nn1-c1ccccc1` [compound 14], the IC50 on ACAT2 [1] is 75 µM.

Regarding `CCCCCCCCCNc1cc(-c2ccccc2)nn1-c1ccccc1` [compound 16], the IC50 at ACAT2 [1] was 97 µM.

For the compound `CCOC(=O)OC(=O)OCC` [diethyl pyrocarbonate], the IC50 on ACAT2 [1] is 170 µM; at human ACAT1 [6], 44 µM. Further, in the assay with ACAT1, the “selectivity for ACAT1 over ACAT2” value worked out at 4 fold.

`COc1ccc([C@@H](O)[C@@H](C)Oc2ccc([C@H]3O[C@H](c4ccc(O[C@H](C)[C@H](O)c5ccc6c(c5)OCO6)c(OC)c4)[C@H](C)[C@H]3C)cc2OC)cc1OC` [manassantin B]: the “inhibition of hACAT-2” value on ACAT2 [7] is recorded as 32%.

As for Saucerneol B, on ACAT2 [1], the IC50 was 124 µM.
